As a reminder, the inhibition is the percentage by which the read-out fell short of the control.

Assay [1] addresses T1, Adenosine receptor A3 (Homo sapiens) (UniProt P0DMS8).
T1 sequence (whole entry): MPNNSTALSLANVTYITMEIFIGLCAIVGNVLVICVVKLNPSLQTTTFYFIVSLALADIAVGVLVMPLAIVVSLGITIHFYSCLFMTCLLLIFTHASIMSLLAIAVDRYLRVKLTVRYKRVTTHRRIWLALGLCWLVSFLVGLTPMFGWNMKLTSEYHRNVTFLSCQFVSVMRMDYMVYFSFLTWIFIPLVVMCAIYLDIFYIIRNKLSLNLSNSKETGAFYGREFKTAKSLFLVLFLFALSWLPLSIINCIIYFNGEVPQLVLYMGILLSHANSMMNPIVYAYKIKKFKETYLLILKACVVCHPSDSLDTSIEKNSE
In words: Displacement of [3H]-MRE-3008-F20 from human adenosine A3 receptor expressed in CHO cells at 10 uM after 120 mins by scintillation counting. The format is cell-based. Background: Displacement assays read how much labelled ligand stays bound in the presence of the test substance.

The target of assay [2] is T2, Adenosine receptor A1 (Homo sapiens) (UniProt P30542).
T2 sequence (whole entry): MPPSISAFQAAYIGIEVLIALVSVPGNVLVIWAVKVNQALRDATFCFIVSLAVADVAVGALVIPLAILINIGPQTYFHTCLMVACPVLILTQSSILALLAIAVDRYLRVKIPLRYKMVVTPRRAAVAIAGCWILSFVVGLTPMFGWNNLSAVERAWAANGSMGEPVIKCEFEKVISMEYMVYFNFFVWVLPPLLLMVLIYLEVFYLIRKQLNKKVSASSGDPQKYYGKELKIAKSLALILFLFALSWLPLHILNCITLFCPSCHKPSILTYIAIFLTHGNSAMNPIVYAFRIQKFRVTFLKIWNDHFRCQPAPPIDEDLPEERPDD
In words: Positive allosteric enhancement of human cloned adenosine A1 receptor expressed in CHO cells assessed as inhibition of forskolin-induced cAMP accumulation at 100 nM using [3H]-cAMP by scintillation counting relative to control in presence of 1 pM of CCPA. The format is functional, cell-based. In general terms: Cyclic AMP is a second messenger, typically raised through Gs and lowered through Gi signalling.

Assay [3] concerns the target T2, Adenosine receptor A1 (Homo sapiens). In words: Positive allosteric enhancement of human cloned adenosine A1 receptor expressed in CHO cells assessed as inhibition of forskolin-induced cAMP accumulation at 10 uM using [3H]-cAMP by scintillation counting relative to control. The format is functional, cell-based.
The target is the same in assay [4]. In words: Binding affinity to human adenosine A1 receptor expressed in CHO cells assessed as fold Ki shift of CCPA at 10 uM after 90 mins by [3H]-CCPA displacement assay relative to control. The format is cell-based.
Assay [5] is described as follows: Displacement of [3H]-ZM241385 from human adenosine A2 receptor expressed in CHO cells at 10 uM after 120 mins by scintillation counting. The format is cell-based.
Assay [6] deals with T2, Adenosine receptor A1 (Homo sapiens). In words: Displacement of [3H]DPCPX from human adenosine A1 receptor expressed in CHO cells at 10 uM after 120 mins by scintillation counting. The class given is cell-based.
The target is the same in assay [7]. In words: Binding affinity to human adenosine A1 receptor expressed in CHO cells assessed as fold Bmax shift of [3H]-CCPA at 10 uM after 90 mins by [3H]-CCPA binding assay relative to control. The format is cell-based.
Assay [8] shares this target. In words: Ratio of PD81723 to compound for positive allosteric enhancement of human cloned adenosine A1 receptor expressed in CHO cells assessed as inhibition of forskolin-induced cAMP accumulation at 10 uM using [3H]-cAMP by scintillation counting. The class given is functional, cell-based.

SMILES strings stand for the structures.

Take `CC(C)Oc1ccc(Cc2sc(N)c(C(=O)c3ccc(Cl)cc3)c2-c2ccccc2)cc1`: the inhibition is under 10% in assay [1]; 26% in assay [2]; 26% in assay [3]; under 10% in assay [5]; under 10% in assay [6]. Besides, the fold change (FC) in assay [4] stood at 2; in assay [7], 1.8.
On to `COc1ccc(Cc2sc(N)c(C(=O)c3ccc(Cl)cc3)c2-c2ccccc2)cc1C`, for which the inhibition in assay [1] was under 10%; in assay [2] it was 30%; in assay [3] it was 31%; in assay [5] it was under 10%; in assay [6], under 10%. In addition, the fold change (FC) in assay [4] was 2.4; in assay [7], 2.7.
For `COc1ccc(Cc2sc(N)c(C(=O)c3ccc(Cl)cc3)c2-c2ccccc2)cc1`, the inhibition in assay [1] was under 10%; in assay [2], 36%; in assay [3], 35%; in assay [5] it was under 10%; in assay [6], under 10%. Further, the fold change (FC) in assay [4] turned out to be 2; in assay [7], 2.8.
Consider `COc1ccccc1Cc1c(-c2ccccc2)sc(N)c1C(=O)c1ccc(Cl)cc1`, for which the inhibition was under 10% in assay [1]; 51% in assay [2]; 55% in assay [3]; under 10% in assay [5]; under 10% in assay [6]. Besides, the fold change (FC) in assay [4] is 4.9; in assay [7] it was 5.6. The Ratio in assay [8] was 3.
For `CC(C)Oc1ccc(Cc2c(-c3ccccc3)sc(N)c2C(=O)c2ccc(Cl)cc2)cc1`, the inhibition in assay [1] is under 10%; in assay [2], 67%; in assay [3], 65%; in assay [5], under 10%; in assay [6], under 10%. Moreover, the fold change (FC) in assay [4] stood at 5.8; in assay [7], 7.6. In addition, in assay [8], the Ratio was 3.
As to `Cc1ccc(Cc2c(-c3ccc(Cl)cc3)sc(N)c2C(=O)c2ccc(Cl)cc2)cc1`, the inhibition in assay [1] is under 10%; in assay [2] it was 69%; in assay [3], 71%; in assay [5] it was under 10%; in assay [6], under 10%. The results for the fold change (FC) in assay [4] and in assay [7] were 7.2 and 8.6, respectively. For the same compound, in assay [8], the Ratio was 3.
`Nc1sc(-c2ccc(F)cc2)c(Cc2ccccc2)c1C(=O)c1ccc(Cl)cc1`: the inhibition is under 10% in assay [1]; 49% in assay [2]; 50% in assay [3]; under 10% in assay [5]; under 10% in assay [6]. Besides, the fold change (FC) amounted to 3.9 in assay [4] and 4.9 in assay [7]. Moreover, the Ratio in assay [8] worked out at 3.
Turning to `COc1cccc(Cc2sc(N)c(C(=O)c3ccc(Cl)cc3)c2-c2ccccc2)c1`, the inhibition is under 10% in assay [1]; 31% in assay [2]; 32% in assay [3]; under 10% in assay [5]; under 10% in assay [6]. The values for the fold change (FC) in assay [4] and in assay [7] were 1.9 and 2.6, respectively.
Take `Cc1ccc(Cc2c(-c3ccc(F)cc3)sc(N)c2C(=O)c2ccc(Cl)cc2)cc1`: the inhibition was under 10% in assay [1]; 62% in assay [2]; 59% in assay [3]; under 10% in assay [5]; under 10% in assay [6]. The fold change (FC) in assay [4] amounted to 5.6; in assay [7], 6.5. For the same compound, in assay [8], the Ratio is 3.
`Cc1ccc(Cc2c(-c3ccccc3)sc(N)c2C(=O)c2ccc(Cl)cc2)cc1`: the inhibition in assay [1] is under 10%; in assay [2] it was 58%; in assay [3], 56%; in assay [5], under 10%; in assay [6], under 10%. The fold change (FC) in assay [4] stood at 5.1; in assay [7] it was 5.6. Further, the Ratio in assay [8] worked out at 3.
Regarding `COc1c(C)cc(Cc2c(-c3ccccc3)sc(N)c2C(=O)c2ccc(Cl)cc2)cc1C`, the inhibition is under 10% in assay [1]; 61% in assay [2]; 59% in assay [3]; under 10% in assay [5]; under 10% in assay [6]. The fold change (FC) in assay [4] turned out to be 4.6; in assay [7] it was 6.6. The Ratio in assay [8] was 3.
In the case of `CCOc1ccc(Cc2sc(N)c(C(=O)c3ccc(Cl)cc3)c2-c2ccccc2)cc1`, the inhibition in assay [1] is under 10%; in assay [2], 21%; in assay [3] it was 22%; in assay [5], under 10%; in assay [6], under 10%. Moreover, the fold change (FC) in assay [4] and in assay [7] was 1.5 throughout.
In the case of `CSc1ccc(Cc2c(-c3ccccc3)sc(N)c2C(=O)c2ccc(Cl)cc2)cc1`, the inhibition is under 10% in assay [1]; 65% in assay [2]; 63% in assay [3]; under 10% in assay [5]; under 10% in assay [6]. For the same compound, the fold change (FC) was 6.3 in assay [4] and 6.6 in assay [7]. In addition, the Ratio in assay [8] stood at 3.
Take `COc1ccc(-c2sc(N)c(C(=O)c3ccc(Cl)cc3)c2Cc2ccc(SC)cc2)cc1`: the inhibition in assay [1] was under 10%; in assay [2], 62%; in assay [3], 62%; in assay [5], under 10%; in assay [6] it was under 10%. Moreover, the fold change (FC) in assay [4] is 6.1; in assay [7], 6.5. The Ratio in assay [8] is 3.
`Nc1sc(-c2ccccc2)c(Cc2cccc3ccccc23)c1C(=O)c1ccc(Cl)cc1`: the inhibition in assay [1] is under 10%; in assay [2] it was 58%; in assay [3], 57%; in assay [5], under 10%; in assay [6] it was under 10%. The fold change (FC) in assay [4] was 4.3; in assay [7], 6.1.
For the compound `Nc1sc(-c2ccccc2)c(Cc2ccccc2)c1C(=O)c1ccc(Cl)cc1`, the inhibition in assay [1] is under 10%; in assay [2], 50%; in assay [3], 51%; in assay [5], under 10%; in assay [6], under 10%. In addition, the results for the fold change (FC) in assay [4] and in assay [7] were 4.2 and 4.9, respectively. In assay [8], the Ratio worked out at 3.
Take `Nc1sc(Cc2ccccc2)c(-c2ccccc2)c1C(=O)c1ccc(Cl)cc1`: the inhibition in assay [1] is under 10%; in assay [2], 35%; in assay [3], 34%; in assay [5], under 10%; in assay [6], under 10%. Also, the results for the fold change (FC) in assay [4] and in assay [7] were 1.9 and 2.6, respectively.
As for `CC(C)(C)Cc1c(-c2ccc(Cl)cc2)sc(N)c1C(=O)c1ccc(Cl)cc1`, the fold change (FC) came out at 4 in assay [4] and 5.8 in assay [7].
With `Nc1sc(Cc2cccc3ccccc23)c(-c2ccccc2)c1C(=O)c1ccc(Cl)cc1`, the inhibition in assay [1] was under 10%; in assay [2] it was 22%; in assay [3] it was 21%; in assay [5], under 10%; in assay [6] it was under 10%. In addition, the results for the fold change (FC) in assay [4] and in assay [7] were 1.4 and 1.5, respectively.
As to `Nc1sc(Cc2ccc(OC(F)(F)F)cc2)c(-c2ccccc2)c1C(=O)c1ccc(Cl)cc1`, the inhibition is under 10% in assay [1]; 25% in assay [2]; 24% in assay [3]; under 10% in assay [5]; under 10% in assay [6]. Moreover, the fold change (FC) in assay [4] and in assay [7] was 1.8 in each case.
Take `Nc1sc(Cc2ccc(C(F)(F)F)cc2)c(-c2ccccc2)c1C(=O)c1ccc(Cl)cc1`: the inhibition in assay [1] was under 10%; in assay [2], 24%; in assay [3], 25%; in assay [5] it was under 10%; in assay [6], under 10%. For the same compound, the fold change (FC) in assay [4] turned out to be 1.6; in assay [7] it was 1.8.
For the compound `Nc1sc(-c2ccc(Cl)cc2)c(CN2CCN(c3ccc(Cl)cc3)CC2)c1C(=O)c1ccc(Cl)cc1`, the fold change (FC) turned out to be 8.7 in assay [4] and 11.4 in assay [7].
